Results published in patent US10294202B2, “Pyrrolidinones as herbicides” (FMC Corporation, priority 2013, dated 2019).

Experiments:
ryegrass, Italian = experiment: Test A pre-/postemergence herbicide test; assay type: in vivo, Lolium multiflorum
Summary of the method: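 Seeds sown in loam soil/sand blend received a preemergence directed soil spray of test chemical in non-phytotoxic solvent with surfactant; postemergence plants (2–10 cm, one- to two-leaf stage) were sprayed with the same formulation. After about 10 days in greenhouse, injury was rated visually versus untreated controls, 0 (no effect) to 100 (complete control).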

blackgrass = experiment: Test A postemergence herbicide test; assay type: in vivo, Alopecurus myosuroides
Summary of the method: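 Potted in loam soil/sand blend; postemergence application at 1–2 leaf stage (2–10 cm). Greenhouse ~10 d. Visual injury vs untreated, 0–100 scale; 100 = complete control.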

kochia = experiment: Test C pre-/postemergence herbicide test; assay type: in vivo, Kochia scoparia; conditions: Postemergence
Summary of the method: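 Visual rating, 0 (no effect) to 100 (complete control), versus untreated controls after 13 to 15 days in the greenhouse. Pre: seeds in loam/sand, sprayed at planting. Post: 1- to 4-leaf plants (2 to 18 cm) in peat-based mix. Compounds in non-phytotoxic solvent plus surfactant.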

ducksalad = experiment: Test C flooded paddy test; assay type: in vivo, Heteranthera limosa; conditions: Flood
Summary of the method: (§1)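 Visual ratings from 0, no effect, to 100, complete control, were made against untreated controls after 13–15 greenhouse days. Compounds had gone straight into paddy water 3 cm above the soil, kept at that depth, on 2-leaf-stage plants.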

barnyardgrass = experiment: Test C flooded paddy test; assay type: in vivo, Echinochloa crus-galli; conditions: Flood
Summary of the method: as §1

[1] = Postemergence, 125 g ai/ha, visual rating on 0 to 100 scale (0 no effect, 100 complete control), approx. 10 days
[2] = Postemergence, 500 g ai/ha, 0 to 100 scale (0 no effect, 100 complete control)
[3] = Preemergence, 125 g ai/ha, 0 to 100 scale where 0 is no effect and 100 is complete control
[4] = preemergence, 500 g ai/ha, 0 to 100 scale, 0 is no effect and 100 is complete control
[5] = 125 g ai/ha, 0 to 100 scale, 0 is no effect, 100 is complete control
[6] = 500 g ai/ha, 0 to 100 scale (0 no effect, 100 complete control)
[7] = 16 g ai/ha, scale 0 to 100 (0 no effect, 100 complete control)
[8] = 31 g ai/ha, scale 0 to 100 (0 no effect, 100 complete control)
[9] = 62 g ai/ha, scale 0 (no effect) to 100 (complete control)
[10] = 125 g ai/ha, scale of 0 to 100 where 0 is no effect and 100 is complete control, 13 to 15 days
[11] = 250 g ai/ha, scale of 0 to 100 where 0 is no effect and 100 is complete control, 13 to 15 days
[12] = 125 g ai/ha, visual rating, 0 to 100 scale, 0 no effect, 100 complete control, approximately 10 days, preemergence
[13] = Postemergence, 125 g ai/ha, 0 to 100 scale, 0 is no effect, 100 is complete control
[14] = 125 g ai/ha, scale 0 to 100 (0 no effect, 100 complete control)
[15] = 250 g ai/ha, scale 0 to 100 (0 no effect, 100 complete control)
[16] = 31 g ai/ha, scale of 0 to 100 where 0 is no effect and 100 is complete control, 13 to 15 days
[17] = 62 g ai/ha, scale of 0 to 100 where 0 is no effect and 100 is complete control, 13 to 15 days

How did the “Plant response rating, Ryegrass, Italian” value (ryegrass, Italian; [1]) turn out when `CN1CC(c2ccc(F)cc2)C(C(=O)Nc2cccc(F)c2F)C1=O` (stereo not drawn) [Compound 271] was run?
The value was 0.

And the “Plant response rating, Ryegrass, Italian” value (ryegrass, Italian; [2])?
The value was 40.

What about the “Plant response rating, Ryegrass, Italian” value (ryegrass, Italian; [3]) of the same molecule?
Its value is 0.

And the “Plant response rating, Ryegrass, Italian” value (ryegrass, Italian; [4])?
Its value is 30.

What about the “Plant response rating, Blackgrass” value (blackgrass; [5]) of the same molecule?
The value was 50.

What about the “Plant response rating, Blackgrass” value (blackgrass; [6]) of the same molecule?
Its value is 60.

And the “Plant response rating, Kochia” value (kochia; 8 g ai/ha, scale 0 to 100 (0 no effect, 100 complete control))?
Its value is 0.

What about the “Plant response rating, Kochia” value (kochia; [7]) of the same molecule?
Its value is 0.

What about the “Plant response rating, Kochia” value (kochia; [8]) of the same molecule?
The value was 0.

And the “Plant response rating, Kochia” value (kochia; [9])?
Its value is 10.

And the “Plant response rating, Ducksalad” value (ducksalad; [10])?
Its value is 70.

And the “Plant response rating, Ducksalad” value (ducksalad; [11])?
The value was 100.

And the “Plant response rating, Ducksalad” value (ducksalad; 500 g ai/ha, scale 0 to 100)?
Its value is 100.

And the “Plant response rating, Ducksalad” value (ducksalad; 1000 g ai/ha, scale 0 to 100)?
The value was 100.

And the “Plant response rating, Barnyardgrass” value (barnyardgrass; [10])?
Its value is 40.

And the “Plant response rating, Barnyardgrass” value (barnyardgrass; [11])?
Its value is 45.

And the “Plant response rating, Barnyardgrass” value (barnyardgrass; 500 g ai/ha, scale 0 to 100)?
The value was 75.

And the “Plant response rating, Barnyardgrass” value (barnyardgrass; 1000 g ai/ha, scale 0 to 100)?
Its value is 80.

How did the “Plant response rating, Ryegrass, Italian” value (ryegrass, Italian; [12]) turn out when `O=C1NCC(c2ccc(C(F)(F)F)cc2)C1C(=O)Nc1ccc(F)c(F)c1F` (stereo not drawn) [Compound 232] was run?
Its value is 40.

What about the “Plant response rating, Ryegrass, Italian” value (ryegrass, Italian; [13]) of the same molecule?
The value was 40.

What about the “Ryegrass, Italian plant response rating (0 to 100 scale, 0 is no effect, 100 is complete control)” value (ryegrass, Italian; Postemergence, 500 g ai/ha) of the same molecule?
Its value is 50.

And the “Plant response rating, Ryegrass, Italian” value (ryegrass, Italian; [4])?
Its value is 80.

What about the “Plant response rating, Blackgrass” value (blackgrass; [5]) of the same molecule?
The value was 50.

And the “Blackgrass plant response rating (0 to 100 scale, 0 is no effect, 100 is complete control)” value (blackgrass; 500 g ai/ha)?
The value was 50.

What about the “Plant response rating, Kochia” value (kochia; [8]) of the same molecule?
The value was 60.

What about the “Plant response rating, Kochia” value (kochia; [9]) of the same molecule?
Its value is 70.

And the “Plant response rating, Kochia” value (kochia; [14])?
Its value is 70.

What about the “Plant response rating, Kochia” value (kochia; [15]) of the same molecule?
Its value is 75.

What about the “Plant response rating, Ducksalad” value (ducksalad; [16]) of the same molecule?
The value was 50.

What about the “Plant response rating, Ducksalad” value (ducksalad; [17]) of the same molecule?
Its value is 75.

And the “Plant response rating, Ducksalad” value (ducksalad; [10])?
Its value is 75.

What about the “Plant response rating, Ducksalad” value (ducksalad; [11]) of the same molecule?
Its value is 95.

And the “Plant response rating, Barnyardgrass” value (barnyardgrass; [16])?
Its value is 0.

What about the “Plant response rating, Barnyardgrass” value (barnyardgrass; [17]) of the same molecule?
Its value is 30.

And the “Plant response rating, Barnyardgrass” value (barnyardgrass; [10])?
Its value is 40.

And the “Plant response rating, Barnyardgrass” value (barnyardgrass; [11])?
The value was 60.

How did the “Plant response rating, Ryegrass, Italian” value (ryegrass, Italian; [1]) turn out when `CN1CC(c2cccc(C(F)(F)F)c2)C(C(=O)Nc2ccccc2F)C1=O` (stereo not drawn) [Compound 277] was run?
The value was 30.

And the “Plant response rating, Ryegrass, Italian” value (ryegrass, Italian; [2])?
The value was 40.

And the “Plant response rating, Ryegrass, Italian” value (ryegrass, Italian; [3])?
Its value is 30.

And the “Plant response rating, Ryegrass, Italian” value (ryegrass, Italian; [4])?
The value was 30.

And the “Plant response rating, Blackgrass” value (blackgrass; [5])?
The value was 50.

And the “Plant response rating, Blackgrass” value (blackgrass; [6])?
Its value is 50.

And the “Plant response rating, Kochia” value (kochia; [7])?
The value was 0.

And the “Plant response rating, Kochia” value (kochia; [8])?
The value was 0.

What about the “Plant response rating, Kochia” value (kochia; [9]) of the same molecule?
Its value is 5.

What about the “Plant response rating, Kochia” value (kochia; [14]) of the same molecule?
Its value is 60.

And the “Plant response rating, Ducksalad” value (ducksalad; [17])?
The value was 65.

What about the “Plant response rating, Ducksalad” value (ducksalad; [10]) of the same molecule?
The value was 80.

What about the “Plant response rating, Ducksalad” value (ducksalad; [11]) of the same molecule?
Its value is 85.

What about the “Plant response rating, Ducksalad” value (ducksalad; 500 g ai/ha, scale 0 to 100) of the same molecule?
The value was 95.

What about the “Plant response rating, Barnyardgrass” value (barnyardgrass; [17]) of the same molecule?
The value was 50.

And the “Plant response rating, Barnyardgrass” value (barnyardgrass; [10])?
The value was 65.

What about the “Plant response rating, Barnyardgrass” value (barnyardgrass; [11]) of the same molecule?
The value was 70.

What about the “Plant response rating, Barnyardgrass” value (barnyardgrass; 500 g ai/ha, scale 0 to 100) of the same molecule?
Its value is 70.

Which results are given for `O=C1NCC(c2cccc(OC(F)F)c2)C1C(=O)Nc1ccccc1F` (stereo not drawn) [Compound 223]?
Plant response rating, Ryegrass, Italian (ryegrass, Italian; [12]): 30; Plant response rating, Ryegrass, Italian (ryegrass, Italian; [13]): 0; Ryegrass, Italian plant response rating (0 to 100 scale, 0 is no effect, 100 is complete control) (ryegrass, Italian; Postemergence, 500 g ai/ha): 40; Plant response rating, Ryegrass, Italian (ryegrass, Italian; [4]): 60; Plant response rating, Blackgrass (blackgrass; [5]): 60; Blackgrass plant response rating (0 to 100 scale, 0 is no effect, 100 is complete control) (blackgrass; 500 g ai/ha): 70; Plant response rating, Kochia (kochia; [8]): 0; Plant response rating, Kochia (kochia; [9]): 5; Plant response rating, Kochia (kochia; [14]): 30; Plant response rating, Kochia (kochia; [15]): 60; Plant response rating, Ducksalad (ducksalad; [16]): 30; Plant response rating, Ducksalad (ducksalad; [17]): 50; Plant response rating, Ducksalad (ducksalad; [10]): 65; Plant response rating, Ducksalad (ducksalad; [11]): 95; Plant response rating, Barnyardgrass (barnyardgrass; [16]): 0; Plant response rating, Barnyardgrass (barnyardgrass; [17]): 0; Plant response rating, Barnyardgrass (barnyardgrass; [10]): 0; Plant response rating, Barnyardgrass (barnyardgrass; [11]): 0

What does the source list for `O=C1NCC(c2cccc(Cl)c2)C1C(=O)Nc1cccc(F)c1F` (racemic) [Compound 275]?
Plant response rating, Ryegrass, Italian (ryegrass, Italian; [1]): 30; Plant response rating, Ryegrass, Italian (ryegrass, Italian; [2]): 50; Plant response rating, Ryegrass, Italian (ryegrass, Italian; [3]): 30; Plant response rating, Ryegrass, Italian (ryegrass, Italian; [4]): 60; Plant response rating, Blackgrass (blackgrass; [5]): 50; Plant response rating, Blackgrass (blackgrass; [6]): 60; Plant response rating, Kochia (kochia; [8]): 70; Plant response rating, Kochia (kochia; [9]): 85; Plant response rating, Kochia (kochia; [14]): 85; Plant response rating, Kochia (kochia; [15]): 85; Plant response rating, Ducksalad (ducksalad; [17]): 85; Plant response rating, Ducksalad (ducksalad; [10]): 100; Plant response rating, Ducksalad (ducksalad; [11]): 100; Plant response rating, Ducksalad (ducksalad; 500 g ai/ha, scale 0 to 100): 100; Plant response rating, Barnyardgrass (barnyardgrass; [17]): 35; Plant response rating, Barnyardgrass (barnyardgrass; [10]): 45; Plant response rating, Barnyardgrass (barnyardgrass; [11]): 60; Plant response rating, Barnyardgrass (barnyardgrass; 500 g ai/ha, scale 0 to 100): 70
